Results: paper PMC9820646, “Identification and Pharmacological Characterization of Two Serotonin Type 7 Receptor Isoforms from Mythimna separata” (International Journal of Molecular Sciences, 2022)
pEC50, pIC50: −log10 of the molar value. Counter-ions that a name gives are not always drawn. Like-named read-outs stand apart in the source and are kept apart here.

Legend:
Msep5-HT7L receptor [1] = biological target: T1, Msep5-HT7L receptor (Mythimna separata, UniProt A0AAD7YHG5); test: cAMP assay, agonist activation of Msep5-HT7L in stably transfected HEK293 cells; assay type: cell-based; parameters: Emax: dose or concentration left out as unconfirmed; details: for effect on intracellular cAMP levels: 10 μM, HEK293 cells expressing Msep5-HT7L; for Emax: HEK293, read-out: activation compared with maximum cAMP stimulation by same concentration of 5-HT
Method: (§1) HEK-293 cells were cultured in D-MEM (Gibco BRL, Gaithersburg, MD, USA) supplemented with 10% FBS (Gibco BRL, Gaithersburg, MD, USA) at 37 °C and 5% CO2. Four microgram recombinant plasmids with 10 μL of lipofectamine 2000 (Invitrogen, Carlsbad, CA, USA) were introduced into exponentially growing HEK 293 cells. The 0.8 mg/mL antibiotic G418 (Sigma, St. Louis, MO, USA) was added to the medium to select for cells that were stably expressed the Msep5-HT7 receptors. After fourteen days of G418 selection, three G418-resistant colonies were trypsinized in cloning cylinders and transferred to 12-well plastic plates for expansion.
(§2) Intracellular cAMP concentrations were measured as previously described. Briefly, when cells were cultured for 2 days to the concentration of 1 × 10^6 cells/mL, culture media were removed and the cells were washed two times with cold PBS (pH 7.4), then the cells were preincubated in 450 μL of Dulbecco’s phosphate-buffered solution (DPBS) containing 100 μM phosphodiesterase inhibitor 3-isobutyl-1-methylxanthine (IBMX) for 20 min at room temperature. After the preincubation, 50 μL of DPBS, containing various concentrations of reagents, was added into the stable transfected cells for incubation for 30 min at 37 °C. The cells were washed three times with cold PBS (pH 7.4) and then lysed in 250 μL of cold cell lysis buffer by re-freezing. The cell debris was removed by centrifugation at 600× g for 10 min at 4 °C. The amount of intracellular cAMP extracted from harvested supernatant was determined using an ELISA reagent (R&D Systems, Minneapolis, MN, USA). Each measurement was performed in duplicate, and three independent assays were carried out for each reagent and concentration tested.

Msep5-HT7S receptor [2] = biological target: T2, Msep5-HT7S receptor (Mythimna separata, UniProt A0AAD7YHG5, DEL320-414); test: cell-based; assay type: cell-based; parameters: Emax: dose or concentration left out as unconfirmed; details: for fold higher agonist potency against Msep5-HT7S than Msep5-HT7L: ratio of EC50 values; for Emax: HEK293, read-out: activation compared with maximum cAMP stimulation by 5-HT
Method: as §1, §2

5-HT7 receptor [3] = details: 5-HT7 receptor from T. castaneum; ref [36]; cited from earlier work
Msep5-HT7L receptor [4] = test: cAMP assay, agonist activation of Msep5-HT7L in stably transfected HEK293 cells; assay type: cell-based, Mythimna separata; parameters: Emax: dose or concentration left out as unconfirmed; details: ratio of EC50 values
Method: as §1, §2

Msep5-HT7L receptor [5] = biological target: T1, Msep5-HT7L receptor; test: cAMP assay, antagonist block of 5-HT-induced response in HEK293 cells expressing Msep5-HT7L; assay type: cell-based; details: against 5 μM 5-HT
Method: as §1, §2

Msep5-HT7L receptor [6] = test: as above; assay type: cell-based; details: for decrease of 5-HT induced response: 40 μM antagonist (8-fold) with 5 μM 5-HT, range stated for all antagonists and both isoforms; for antagonist potency or efficacy, Msep5-HT7L compared with Msep5-HT7S: inhibition of 5-HT-induced cAMP production, based on 95% fiducial limits
Method: as §1, §2

Msep5-HT7S receptor [7] = biological target: T2, Msep5-HT7S receptor; test: cAMP assay, antagonist block of 5-HT-induced response in HEK293 cells expressing Msep5-HT7S; assay type: cell-based; details: for inhibition at 40 µM: HEK293, read-out: decrease of 5-HT induced response
Method: as §1, §2

5-HT7 receptor [8] = test: literature pharmacology of C. vicina 5-HT7 receptor; details: 5-HT7 receptor from C. vicina vs the two Msep5-HT7 isoforms
5-HT7 receptor [9] = details: 5-HT7 receptor from T. castaneum vs the two Msep5-HT7 isoforms
5-HT7 receptor [10] = details: 5-HT7 receptor from C. vicina; ref [28],[36],[46]; cited from earlier work
5-HT7 receptor [11] = details: 5-HT7 receptor from A. mellifera; ref [17],[27]; cited from earlier work
5-HT1 receptor = biological target: 5-HT1 receptor; parameters: method as in PMID 23741451, PMID 16945110; details: 5-HT1 receptor from T. castaneum; ref [17],[27]; cited from earlier work
[12] = system: larvae of Mythimna separata; parameters: method as in PMID 20000410; details: ref [22]; cited from earlier work
[13] = 10 μM, HEK293 cells expressing Msep5-HT7S
[14] = EC50, 5-HT7L, cAMP production, HEK-293 cells
[15] = logEC50 (Mean ± SEM), 5-HT7L, cAMP production, HEK-293 cells, given as negative log value
[16] = EC50, 5-HT7S, cAMP production, HEK-293 cells
[17] = logEC50 (Mean ± SEM), 5-HT7S, cAMP production, HEK-293 cells, given as negative log value
[18] = logIC50 (Mean ± SEM), 5-HT7L, given as negative log value
[19] = IC50, 5-HT7S, against 5 μM 5-HT, HEK-293 cells
[20] = logIC50 (Mean ± SEM), 5-HT7S, against 5 μM 5-HT, given as negative log value

T1 sequence (A0AAD7YHG5 entry or part of it): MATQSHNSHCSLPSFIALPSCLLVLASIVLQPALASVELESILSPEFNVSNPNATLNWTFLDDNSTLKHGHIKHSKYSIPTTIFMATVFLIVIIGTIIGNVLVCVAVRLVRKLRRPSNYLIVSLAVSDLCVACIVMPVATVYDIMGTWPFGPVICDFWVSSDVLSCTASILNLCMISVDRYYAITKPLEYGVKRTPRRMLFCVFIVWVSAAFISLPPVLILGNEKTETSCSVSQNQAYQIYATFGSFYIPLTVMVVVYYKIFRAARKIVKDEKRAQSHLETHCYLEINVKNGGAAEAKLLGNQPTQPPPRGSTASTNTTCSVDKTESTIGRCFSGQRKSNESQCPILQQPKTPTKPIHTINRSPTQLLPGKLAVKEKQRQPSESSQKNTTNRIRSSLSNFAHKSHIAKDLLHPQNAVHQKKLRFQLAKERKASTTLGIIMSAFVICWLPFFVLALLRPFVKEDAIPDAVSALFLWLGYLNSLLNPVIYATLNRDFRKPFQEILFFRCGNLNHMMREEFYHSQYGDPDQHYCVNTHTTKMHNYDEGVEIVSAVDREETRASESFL
T2 sequence (A0AAD7YHG5 entry or part of it DEL320-414): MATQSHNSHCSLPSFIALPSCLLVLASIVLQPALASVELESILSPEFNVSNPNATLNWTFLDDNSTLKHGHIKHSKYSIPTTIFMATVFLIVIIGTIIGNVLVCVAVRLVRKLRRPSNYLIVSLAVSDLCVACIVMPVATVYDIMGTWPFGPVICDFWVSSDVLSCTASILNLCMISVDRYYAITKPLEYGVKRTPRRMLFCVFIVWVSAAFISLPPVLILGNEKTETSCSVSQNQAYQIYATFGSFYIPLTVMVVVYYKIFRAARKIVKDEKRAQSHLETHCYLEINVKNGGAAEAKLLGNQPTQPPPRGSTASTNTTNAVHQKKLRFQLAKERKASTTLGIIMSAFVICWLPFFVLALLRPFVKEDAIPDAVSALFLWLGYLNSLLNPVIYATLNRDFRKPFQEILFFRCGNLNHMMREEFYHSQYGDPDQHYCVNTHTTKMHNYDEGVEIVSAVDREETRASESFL

Structure (SMILES) | effect on intracellular cAMP levels (Msep5-HT7L receptor [1]) | effect on intracellular cAMP levels (Msep5-HT7S receptor [2]; [13]) | pIC50 (Msep5-HT7L receptor [5]; IC50, 5-HT7L, HEK-293 cells) | pIC50 (Msep5-HT7L receptor [5]; [18]) | decrease of 5-HT induced response (Msep5-HT7L receptor [6]) | antagonist potency or efficacy, Msep5-HT7L compared with Msep5-HT7S (Msep5-HT7L receptor [6]) | inhibition at 40 µM (Msep5-HT7S receptor [7]) | pIC50 (Msep5-HT7S receptor [7]; [19]) | pIC50 (Msep5-HT7S receptor [7]; [20]) | further results
CC(N)Cc1c[nH]c2ccc(O)cc12.O=C(O)/C=C\C(=O)O (stereo not drawn) [αm-5-HT, α-methylserotonin maleate] | activated | significantly increased cAMP levels |  |  |  |  |  |  |  | logEC50 (Mean ± SEM) (Msep5-HT7L receptor [1]; 5-HT7L, cAMP production, HEK-293 cells, given as negative log value): −4.86 ± 0.04; pEC50 (Msep5-HT7L receptor [1]; 5-HT7L, cAMP production, HEK-293 cells, read-out: EC50): 4.86; activation compared with maximum cAMP stimulation by same concentration of 5-HT (Msep5-HT7L receptor [1]; highest concentration 1 mM, Msep5-HT7L): about 69%; activation compared with maximum cAMP stimulation by 5-HT (Msep5-HT7S receptor [2]): about 35%; logEC50 (Mean ± SEM) (Msep5-HT7S receptor [2]; 5-HT7S, cAMP production, HEK-293 cells, given as negative log value): −5.23 ± 0.29; pEC50 (Msep5-HT7S receptor [2]; 5-HT7S, cAMP production, HEK-293 cells, read-out: EC50): 5.23; fold higher agonist potency against Msep5-HT7S than Msep5-HT7L (Msep5-HT7S receptor [2]): 2.3 fold; efficacy fold lower than 5-HT (5-HT7 receptor [3]): about 2 fold; potency fold lower than 5-HT (5-HT7 receptor [3]): more than 190 fold
CCCN(CCC)C1CCc2cccc(O)c2C1 (racemic) [8-OH-DPAT, (±)-8-hydroxy-2-(dipropylamino) tetralin hydrobromide] | activated | only αm-5-HT significantly increased cAMP levels |  |  |  |  |  |  |  | pEC50 (Msep5-HT7L receptor [1]; [14]): 5.00; Emax (Msep5-HT7L receptor [1]): < 30%; pEC50 (Msep5-HT7L receptor [1]; [15]): 5.00; fold higher agonist potency against Msep5-HT7L than Msep5-HT7S (Msep5-HT7L receptor [4]): 2.4 fold; pEC50 (Msep5-HT7S receptor [2]; [16]): 4.61; Emax (Msep5-HT7S receptor [2]): < 30%; pEC50 (Msep5-HT7S receptor [2]; [17]): 4.61; efficacy fold lower than 5-HT (5-HT7 receptor [3]): about 2 fold; potency fold lower than 5-HT (5-HT7 receptor [3]): more than 190 fold
O=C(c1ccc(F)cc1)C1CCN(CCn2c(=O)[nH]c3ccccc3c2=O)CC1 [Ketanserin] |  |  | 4.33 | 4.33 | 33–60% | higher antagonistic activity | 33 to 60% | 4.07 | 4.07 | fold higher inhibitory potency than against Msep5-HT7L and Msep5-HT7S (5-HT7 receptor [8]): 20- to 50 fold; fold higher inhibitory potency than against Msep5-HT7L and Msep5-HT7S (5-HT7 receptor [9]): 20- to 50 fold; pIC50 (5-HT7 receptor [3]): 5.71; pIC50 (5-HT7 receptor [10]): 5.82
NCCc1c[nH]c2ccc(O)cc12 [5-HT, serotonin hydrochloride] | significantly increased cAMP levels | significantly increased cAMP levels |  |  |  |  |  |  |  | 
NCCc1ccc(O)c(O)c1 [dopamine, dopamine hydrochloride] | only 5-HT significantly increased cAMP levels |  |  |  |  |  |  |  |  | effect on intracellular cAMP levels (Msep5-HT7S receptor [2]): only 5-HT significantly increased cAMP levels
Cc1cccc(S(=O)(=O)N(C)[C@H](C)CCN2CCC(C)CC2)c1 [SB-258719] |  |  | 4.26 | 4.26 | 33–60% | no significant differences | 33 to 60% | 4.19 | 4.19 | 
NCCc1ccc(O)cc1 [tyramine, tyramine hydrochloride] | only 5-HT significantly increased cAMP levels | only 5-HT significantly increased cAMP levels |  |  |  |  |  |  |  | 
COc1ccccc1N1CCN(CCN(C(=O)C2CCCCC2)c2ccccn2)CC1 [WAY-100635] |  |  |  |  | 33–60% | higher antagonistic activity |  |  |  | pIC50 (Msep5-HT7L receptor [5]; 5-HT7L, HEK-293 cells, read-out: IC50): 4.44; logIC50 (Mean ± SEM) (Msep5-HT7L receptor [5]; 5-HT7L, given as negative log value): −4.44 ± 0.04; pIC50 (Msep5-HT7S receptor [7]; 5-HT7S, against 5 μM 5-HT, HEK-293 cells, read-out: IC50): 4.15; logIC50 (Mean ± SEM) (Msep5-HT7S receptor [7]; 5-HT7S, against 5 μM 5-HT, given as negative log value): −4.15 ± 0.02; pIC50 (5-HT7 receptor [3]): 4.11
CSc1ccc2c(c1)C(N1CCN(C)CC1)Cc1ccccc1S2 (centres unmarked) [Methiothepin, methiothepin mesylate] |  |  | 4.06 | 4.06 | 33–60% | no significant differences | 33 to 60% | 4.20 | 4.20 | 
CC1CCN(CC[C@H]2CCCN2S(=O)(=O)c2cccc(O)c2)CC1 [SB-269970, (R)-3-(2-(2-(4-methylpiperidin-1-yl)ethyl)pyrrolidine-1-sulfonyl) phenol] |  |  | 4.15 | 4.15 | 33–60% | no significant differences | 33 to 60% | 4.17 | 4.17 | antagonistic effect (5-HT7 receptor [11]): poor antagonistic effect; pIC50 (5-HT1 receptor): 3.69
Nc1ccc(CCN2CCN(c3cccc(C(F)(F)F)c3)CC2)cc1 [PAPP, 1-[(4-aminophenyl)ethyl]-4-[3-(trifluoromethyl)phenyl] piperazine] |  |  |  |  |  |  |  |  |  | effect on larvae [12]: inhibit the growth or kill the larvae
COc1ccc2[nH]cc(CCN)c2c1 [5-MT, 5-methoxytryptamine] | activated | only αm-5-HT significantly increased cAMP levels |  |  |  |  |  |  |  | pEC50 (Msep5-HT7L receptor [1]; [14]): 4.68; Emax (Msep5-HT7L receptor [1]): ~69%; pEC50 (Msep5-HT7L receptor [1]; [15]): 4.68; pEC50 (Msep5-HT7S receptor [2]; [16]): 4.71; Emax (Msep5-HT7S receptor [2]): ~35%; pEC50 (Msep5-HT7S receptor [2]; [17]): 4.71; fold higher agonist potency against Msep5-HT7S than Msep5-HT7L (Msep5-HT7S receptor [2]): roughly equivalent; efficacy fold lower than 5-HT (5-HT7 receptor [3]): about 2 fold; potency fold lower than 5-HT (5-HT7 receptor [3]): more than 190 fold
NCC(O)c1ccc(O)cc1 (racemic) [octopamine, (±)-octopamine hydrochloride] | only 5-HT significantly increased cAMP levels | only 5-HT significantly increased cAMP levels |  |  |  |  |  |  |  | 
